{
  "source": "paper PMC4196226",
  "about": "(mBio, 2014)",
  "assay_type_in_all_cases": "cell-based",
  "key": {"B. cepacia": {"test_system": "B. cepacia", "experiment": "MIC assay", "conditions": "Burkholderia cepacia"}, "S. maltophilia": {"test_system": "S. maltophilia", "experiment": "MIC assay", "conditions": "Stenotrophomonas maltophilia"}, "K. pneumoniae": {"test_system": "K. pneumoniae", "experiment": "microbe, parasite or virus in culture", "conditions": "Klebsiella pneumoniae"}, "P. aeruginosa": {"test_system": "P. aeruginosa", "experiment": "microbe, parasite or virus in culture", "conditions": "Pseudomonas aeruginosa"}, "A. baumannii": {"test_system": "A. baumannii", "experiment": "MIC assay", "conditions": "Acinetobacter baumannii"}},
  "data": [
    {"molecule": "C[C@@H](O)[C@H]1C(=O)N2C(C(=O)O)=C(S[C@@H]3CN[C@H](C(=O)N(C)C)C3)[C@H](C)[C@H]12", "note": "[MPM, meropenem]", "values": [
      {"measurement": "MIC90", "setting": "B. cepacia", "result": 8, "unit": "µg/mL"},
      {"measurement": "MIC90", "setting": "S. maltophilia", "result": "> 64", "unit": "µg/mL"},
      {"measurement": "MIC90", "setting": "K. pneumoniae", "result": 32, "unit": "µg/mL"},
      {"measurement": "MIC90", "setting": "P. aeruginosa", "result": "> 64", "unit": "µg/mL"},
      {"measurement": "MIC90", "setting": "A. baumannii", "result": 32, "unit": "µg/mL"}
    ]}
  ]
}
